Patent US20260027116A1, “Methods of Treating Chronic Graft-Versus-Host Disease Following Allogeneic Hematopoietic Stem Cell Transplantation” (Kadmon Corporation, LLC, priority 2022, published 2026)

System: patients with cGVHD
Conditions: Cohort 1 200 mg QD

Compound: CC(C)NC(=O)COc1cccc(-c2nc(Nc3ccc4[nH]ncc4c3)c3ccccc3n2)c1 [Belumosudil, 2-{3-[4-(1H-indazol-5-ylamino)-2-quinazolinyl]phenoxy}-N-(propan-2-yl) acetamide]
- Grade ≥3 Lung infection or pneumonia, No. (%): 1 (6)
- Graft versus host disease in gastrointestinal tract: # Events: 1
- Graft versus host disease in gastrointestinal tract: Affected/At Risk (%): 1/17 (5.88%)
- Gynaecomastia: # Events: 0
- Gynaecomastia: Affected/At Risk (%): 0/17 (0%)
- Haematuria: # Events: 1
- Haematuria: Affected/At Risk (%): 1/17 (5.88%)
- Hair growth abnormal: # Events: 1
- Hair growth abnormal: Affected/At Risk (%): 1/17 (5.88%)
- Headache: # Events: 4
- Headache: Affected/At Risk (%): 4/17 (23.53%)
- Hodgkin's disease recurrent: # Events: 1
- Hodgkin's disease recurrent: Affected/At Risk (%): 1/17 (5.88%)
- Hordeolum: # Events: 1
- Hordeolum: Affected/At Risk (%): 1/17 (5.88%)
- Hot flush: # Events: 1
- Hot flush: Affected/At Risk (%): 1/17 (5.88%)
- Hyperglycemia: # Events: 2
- Hyperglycemia: Affected/At Risk (%): 2/17 (11.76%)
- Hyperhidrosis: # Events: 0
- Hyperhidrosis: Affected/At Risk (%): 0/17 (0%)
- Hyperkalaemia: # Events: 7
- Hyperkalaemia: Affected/At Risk (%): 3/17 (17.65%)
- Hypertension: # Events: 8
- Hypertension: Affected/At Risk (%): 5/17 (29.41%)
- Hyperthyroidism: # Events: 0
- Hyperthyroidism: Affected/At Risk (%): 0/17 (0%)
- Hypertriglyceridaemia: # Events: 0
- Hypertriglyceridaemia: Affected/At Risk (%): 0/17 (0%)
- Hyperuricaemia: # Events: 6
- Hyperuricaemia: Affected/At Risk (%): 1/17 (5.88%)
- Hypoaesthesia: # Events: 2
- Hypoaesthesia: Affected/At Risk (%): 1/17 (5.88%)
- Hypocalcaemia: # Events: 0
- Hypocalcaemia: Affected/At Risk (%): 0/17 (0%)
- Hypogonadism: # Events: 1
- Hypogonadism: Affected/At Risk (%): 1/17 (5.88%)
- Hypokalaemia: # Events: 1
- Hypokalaemia: Affected/At Risk (%): 1/17 (5.88%)
- Hypomagnesaemia: # Events: 1
- Hypomagnesaemia: Affected/At Risk (%): 1/17 (5.88%)
- Hyponatraemia: # Events: 1
- Hyponatraemia: Affected/At Risk (%): 1/17 (5.88%)
- Hypophosphataemia: # Events: 1
- Hypophosphataemia: Affected/At Risk (%): 1/17 (5.88%)
- Hypothermia: # Events: 0
- Hypothermia: Affected/At Risk (%): 0/17 (0%)
- Hypothyroidism: # Events: 2
- Hypothyroidism: Affected/At Risk (%): 1/17 (5.88%)
- Hypoxia: # Events: 1
- Hypoxia: Affected/At Risk (%): 1/17 (5.88%)
- Impaired healing: # Events: 1
- Impaired healing: Affected/At Risk (%): 1/17 (5.88%)
- Influenza like illness: # Events: 1
- Influenza like illness: Affected/At Risk (%): 1/17 (5.88%)
- Influenza: # Events: 2
- Influenza: Affected/At Risk (%): 2/17 (11.76%)
- Insomnia: # Events: 0
- Insomnia: Affected/At Risk (%): 0/17 (0%)
- Irritability: # Events: 1
- Irritability: Affected/At Risk (%): 1/17 (5.88%)
- Joint range of motion decreased: # Events: 0
- Joint range of motion decreased: Affected/At Risk (%): 0/17 (0%)
- Lacrimation increased: # Events: 0
- Lacrimation increased: Affected/At Risk (%): 0/17 (0%)
- Leukaemia recurrent: # Events: 1
- Leukaemia recurrent: Affected/At Risk (%): 1/17 (5.88%)
- Leukocytosis: # Events: 1
- Leukocytosis: Affected/At Risk (%): 1/17 (5.88%)
- Ligament sprain: # Events: 1
- Ligament sprain: Affected/At Risk (%): 1/17 (5.88%)
- Limb injury: # Events: 1
- Limb injury: Affected/At Risk (%): 1/17 (5.88%)
- Macular degeneration: # Events: 0
- Macular degeneration: Affected/At Risk (%): 0/17 (0%)
- Migraine: # Events: 0
- Migraine: Affected/At Risk (%): 0/17 (0%)
- Muscle spasms: # Events: 1
- Muscle spasms: Affected/At Risk (%): 1/17 (5.88%)
- Muscle spasticity: # Events: 1
- Muscle spasticity: Affected/At Risk (%): 1/17 (5.88%)
- Muscular weakness: # Events: 6
- Muscular weakness: Affected/At Risk (%): 4/17 (23.53%)
- Musculoskeletal chest pain: # Events: 1
- Musculoskeletal chest pain: Affected/At Risk (%): 1/17 (5.88%)
- Myalgia: # Events: 2
- Myalgia: Affected/At Risk (%): 1/17 (5.88%)
- Nail disorder: # Events: 1
- Nail disorder: Affected/At Risk (%): 1/17 (5.88%)
- Nasal congestion: # Events: 3
- Nasal congestion: Affected/At Risk (%): 3/17 (17.65%)
- Nausea: # Events: 10
- Nausea: Affected/At Risk (%): 6/17 (35.29%)
- Neck pain: # Events: 1
- Neck pain: Affected/At Risk (%): 1/17 (5.88%)
- Nephrotic syndrome: # Events: 1
- Nephrotic syndrome: Affected/At Risk (%): 1/17 (5.88%)
- Neuropathy peripheral: # Events: 0
- Neuropathy peripheral: Affected/At Risk (%): 0/17 (0%)
- Neutrophil count decreased: # Events: 1
- Neutrophil count decreased: Affected/At Risk (%): 1/17 (5.88%)
- Nocturia: # Events: 1
- Nocturia: Affected/At Risk (%): 1/17 (5.88%)
- Non-cardiac chest pain: # Events: 0
- Non-cardiac chest pain: Affected/At Risk (%): 0/17 (0%)
- Obesity: # Events: 2
- Obesity: Affected/At Risk (%): 2/17 (11.76%)
- Oedema peripheral: # Events: 3
- Oedema peripheral: Affected/At Risk (%): 3/17 (17.65%)
- Oedema: # Events: 0
- Oedema: Affected/At Risk (%): 0/17 (0%)
- Oesophageal ulcer: # Events: 0
- Oesophageal ulcer: Affected/At Risk (%): 0/17 (0%)
- Oral candidiasis: # Events: 3
- Oral candidiasis: Affected/At Risk (%): 2/17 (11.76%)
- Oropharyngeal pain: # Events: 1
- Oropharyngeal pain: Affected/At Risk (%): 1/17 (5.88%)
- Orthopnoea: # Events: 1
- Orthopnoea: Affected/At Risk (%): 1/17 (5.88%)
- Osteonecrosis: # Events: 1
- Osteonecrosis: Affected/At Risk (%): 1/17 (5.88%)
- Osteopenia: # Events: 0
- Osteopenia: Affected/At Risk (%): 0/17 (0%)
- Osteoporosis: # Events: 0
- Osteoporosis: Affected/At Risk (%): 0/17 (0%)
- Overdose: # Events: 1
- Overdose: Affected/At Risk (%): 1/17 (5.88%)
- Pain in extremity: # Events: 2
- Pain in extremity: Affected/At Risk (%): 2/17 (11.76%)
- Pain: # Events: 3
- Pain: Affected/At Risk (%): 3/17 (17.65%)
- Palpitations: # Events: 1
- Palpitations: Affected/At Risk (%): 1/17 (5.88%)
- Paraesthesia: # Events: 0
- Paraesthesia: Affected/At Risk (%): 0/17 (0%)
- Pericardial effusion: # Events: 1
- Pericardial effusion: Affected/At Risk (%): 1/17 (5.88%)
- Peripheral coldness: # Events: 1
- Peripheral coldness: Affected/At Risk (%): 1/17 (5.88%)
- Peripheral sensory neuropathy: # Events: 0
- Peripheral sensory neuropathy: Affected/At Risk (%): 0/17 (0%)
- Phlebitis: # Events: 0
- Phlebitis: Affected/At Risk (%): 0/17 (0%)
- Photophobia: # Events: 0
- Photophobia: Affected/At Risk (%): 0/17 (0%)
- Platelet count decreased: # Events: 3
- Platelet count decreased: Affected/At Risk (%): 1/17 (5.88%)
- Pleural effusion: # Events: 1
- Pleural effusion: Affected/At Risk (%): 1/17 (5.88%)
- Pneumonia respiratory syncytial viral: # Events: 0
- Pneumonia respiratory syncytial viral: Affected/At Risk (%): 0/17 (0%)
- Pneumonia: # Events: 2
- Pneumonia: Affected/At Risk (%): 1/17 (5.88%)
- Pollakiuria: # Events: 1
- Pollakiuria: Affected/At Risk (%): 1/17 (5.88%)
- Presyncope: # Events: 0
- Presyncope: Affected/At Risk (%): 0/17 (0%)
- Productive cough: # Events: 2
- Productive cough: Affected/At Risk (%): 2/17 (11.76%)
- Proteinuria: # Events: 2
- Proteinuria: Affected/At Risk (%): 2/17 (11.76%)
- Pruritus: # Events: 1
- Pruritus: Affected/At Risk (%): 1/17 (5.88%)
- Pseudomonas infection: # Events: 1
- Pseudomonas infection: Affected/At Risk (%): 1/17 (5.88%)
- Pulmonary mass: # Events: 0
- Pulmonary mass: Affected/At Risk (%): 0/17 (0%)
- Pyrexia: # Events: 3
- Pyrexia: Affected/At Risk (%): 1/17 (5.88%)
